This is an account of results in patent US7998965B2, “Glutamate aggrecanase inhibitors” (Wyeth LLC, priority 2005, dated 2011).

One assay deals with T1, MMP-1 (Homo sapiens, UniProt P03956).
T1 sequence (P03956 100-469): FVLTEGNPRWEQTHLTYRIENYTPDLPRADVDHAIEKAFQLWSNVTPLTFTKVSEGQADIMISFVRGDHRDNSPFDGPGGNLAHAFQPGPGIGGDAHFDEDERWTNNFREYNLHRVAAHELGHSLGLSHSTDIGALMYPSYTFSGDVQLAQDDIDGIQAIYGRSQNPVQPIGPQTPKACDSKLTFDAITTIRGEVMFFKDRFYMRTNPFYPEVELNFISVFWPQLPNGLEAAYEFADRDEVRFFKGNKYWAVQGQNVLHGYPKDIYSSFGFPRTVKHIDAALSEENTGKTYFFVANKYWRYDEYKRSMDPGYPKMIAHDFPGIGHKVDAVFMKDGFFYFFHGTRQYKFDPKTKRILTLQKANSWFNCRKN
The experiment in a line: MMP-1 of Table 1. In kind it is biochemical. The note with it: for MMP-1: unit not given; for IC50: unit inferred.

In assay [1] the target is T2, purified recombinant human Aggrecanase-2 (Ag2t-Phe628-Strep) (Homo sapiens, UniProt Q9UNA0).
T2 construct: the form used is denoted as Ag2t-Phe628-Strep (MW=41,737)
T2 sequence (Q9UNA0 262-628): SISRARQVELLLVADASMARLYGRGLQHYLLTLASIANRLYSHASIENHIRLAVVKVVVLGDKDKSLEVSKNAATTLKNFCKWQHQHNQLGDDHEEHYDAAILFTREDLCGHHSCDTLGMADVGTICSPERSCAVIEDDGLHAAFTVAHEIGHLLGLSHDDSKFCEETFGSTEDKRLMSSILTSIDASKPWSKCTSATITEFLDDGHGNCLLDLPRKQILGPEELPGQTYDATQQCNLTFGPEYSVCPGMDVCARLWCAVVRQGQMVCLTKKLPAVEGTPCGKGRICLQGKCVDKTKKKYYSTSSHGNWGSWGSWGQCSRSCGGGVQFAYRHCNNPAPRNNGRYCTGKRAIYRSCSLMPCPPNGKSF
The experiment in a line: In vitro fluorescence screen for Aggrecanase-2 inhibitors. Type of assay: biochemical. Conditions: read-out: Agg 2 IC50.

The target in assay [2] is T3, purified recombinant human Aggrecanase-1 (rAgg1) (Homo sapiens, UniProt O75173).
T3 sequence (O75173 213-837): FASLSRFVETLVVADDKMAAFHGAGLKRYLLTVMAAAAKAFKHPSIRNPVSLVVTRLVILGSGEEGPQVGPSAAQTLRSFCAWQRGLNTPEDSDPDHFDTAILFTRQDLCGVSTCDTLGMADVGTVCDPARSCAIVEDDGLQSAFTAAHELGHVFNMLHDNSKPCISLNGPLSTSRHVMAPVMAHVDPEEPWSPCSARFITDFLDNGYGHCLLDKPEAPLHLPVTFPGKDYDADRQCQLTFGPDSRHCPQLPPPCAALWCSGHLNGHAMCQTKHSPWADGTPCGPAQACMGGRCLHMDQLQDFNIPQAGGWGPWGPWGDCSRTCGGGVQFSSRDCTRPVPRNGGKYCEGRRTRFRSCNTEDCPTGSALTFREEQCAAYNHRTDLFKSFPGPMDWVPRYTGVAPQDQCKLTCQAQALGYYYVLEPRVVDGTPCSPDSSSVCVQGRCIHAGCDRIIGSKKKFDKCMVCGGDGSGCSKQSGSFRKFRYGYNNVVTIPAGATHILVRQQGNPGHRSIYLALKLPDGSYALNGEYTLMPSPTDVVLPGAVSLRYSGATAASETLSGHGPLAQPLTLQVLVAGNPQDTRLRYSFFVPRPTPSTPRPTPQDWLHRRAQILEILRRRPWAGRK
The experiment in a line: In vitro fluorescence screen for Aggrecanase-1 inhibitors. Conditions: for IC50: read-out: Agg1 IC50. In kind it is biochemical.

Assay [3] addresses T4, recombinant human catalytic domain of MMP-14 (Homo sapiens, UniProt P50281).
T4 construct: 177 amino acids corresponding to Tyr89-Gly265 of mature human enzyme; purchased Chemicon International, Inc. CC1041
As to the kind of experiment: In vitro fluorescence assay of MMP-14 activity. In kind it is biochemical. The note with it: Table 1; for IC50: unit inferred.

Assay [4] has as its target T5, recombinant human catalytic domain of MMP-13 (Homo sapiens, UniProt P45452).
T5 construct: catalytic domain of MMP-13 (165 amino acids, residues 104-268, 19 kDa)
As to the kind of experiment: In vitro fluorescence assay of MMP-13 activity. Type of assay: biochemical.

The target in a further assay is T6, recombinant human MMP-2 (Homo sapiens, UniProt P08253).
T6 sequence (P08253 110-660): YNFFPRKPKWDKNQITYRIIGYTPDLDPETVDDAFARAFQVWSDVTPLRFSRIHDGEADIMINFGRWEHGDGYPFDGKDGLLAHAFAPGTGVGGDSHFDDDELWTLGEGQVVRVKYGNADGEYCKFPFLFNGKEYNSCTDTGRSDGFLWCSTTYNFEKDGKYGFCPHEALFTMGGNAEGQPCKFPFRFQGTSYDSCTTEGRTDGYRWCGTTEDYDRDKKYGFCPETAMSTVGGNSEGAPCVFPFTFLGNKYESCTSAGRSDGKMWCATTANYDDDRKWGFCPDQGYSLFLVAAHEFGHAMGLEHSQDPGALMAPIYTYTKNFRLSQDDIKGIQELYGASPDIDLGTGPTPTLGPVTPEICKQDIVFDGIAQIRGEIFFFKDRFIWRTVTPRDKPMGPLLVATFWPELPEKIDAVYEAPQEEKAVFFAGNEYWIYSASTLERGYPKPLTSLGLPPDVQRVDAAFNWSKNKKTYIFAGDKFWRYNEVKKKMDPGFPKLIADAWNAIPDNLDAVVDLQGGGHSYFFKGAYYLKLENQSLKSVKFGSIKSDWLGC
The experiment in a line: In vitro fluorescence assay of MMP-2 activity.

Assay [5] relates to bovine articular cartilage treated with Interleukin 1 alpha (IL-1α). As to the kind of experiment: Bovine articular cartilage explant cultures: inhibition of degradation of proteoglycan. In kind it is cell-based. The note with it: inhibitory effect expressed as percentage, concentration not printed. From the text: This in vitro procedure was used to evaluate the effect and relative potencies of small molecule compounds to inhibit the degradation of proteoglycan in articular cartilage treated with Interleukin 1 alpha (IL-1α). Treatment of articular cartilage with IL 1α induces expression of a cascade of enzymes that initiates cartilage matrix degradation. This assay was utilized to select small molecule compounds that inhibit the enzyme activity and protects cartilage matrix degradation.
Articular cartilage: bovine metacarpal joints were disinfected with 10% Wescodyne followed by 70% ethanol. 6 mm articular cartilage discs were prepared and rinsed once in PBS and medium, respectively. The discs were cultured in a stirring flask with serum-free medium for 5 days for equilibrium with one medium change. Small molecule compounds: stock solutions of test small molecule compounds (usually at 5 mg/ml) were prepared in DMSO. Working solutions were diluted with DMSO and generally ranged from 0.1 μg/ml to 10 ug/ml. The DMSO stocks were stored at […]. Articular cartilage explant culture medium: DMEM, 2 mM glutamax, 100 U/ml of antibiotic and antimycotic, 50 μg/ml ascorbate and 10 mM Hepes (pH-7.0). Proteoglycan content-Dimethyl methylene blue (DMMB) solution: […] DMMB, 10 ml 100% ethanol, 29.5 ml of 1M NaOH, 3.5 ml of 98% formic acid and water to 1 L. Chondroitin sulphate sodium salt: 1.56-200 ug/ml serial dilutions.
For the explant culture, cartilage discs were cultured in serum-free medium for 48 h or more. Discs were weighed and transferred to a 96-well plate, 1 disc per-well. 0.2 ml of medium containing 5 ng/ml of IL-1 and different concentrations of compounds were added to each well, with 3 wells allocated for each treatment. The medium was collected at days 1, 2, & 3 and replaced accordingly.
For the DMMB assay, conditioned medium (CM) samples were diluted with medium. 10 ul of each standard or diluted sample was added in duplicate into a 96-well-plate and 200 μl of DMMB solution was added into each well. Absorbance at 520 nm was measured for each well. Proteoglycan contents in CM were calculated daily.
The proteoglycan contents are expressed as ug per mg of cartilage. The inhibitory effect of the compounds is expressed as percentage. (See, Tortorella, M. D. et al., Science 1999, 284, 1664-1666).

Where [6] appears, read: Table 2, nM printed in one cell only.
[7] abbreviates: Table 1, first of two columns headed bovine.
[8] abbreviates: Table 1, second of two columns headed bovine.

Where two headings read alike, the source gives them in different places.

In general, IC50 refers to the concentration at which inhibition is half-maximal. A word on the Ki: it is a dissociation constant, usually derived from enzyme kinetics or from competition with a known ligand.

Turning to `O=C(O)CC[C@H](NC(=O)c1ccc(-c2ccccc2)cc1)C(=O)NCCCCCO` [Example 8WWW, N^2-(biphenyl-4-ylcarbonyl)-N^1-(5-hydroxypentyl)-L-α-glutamine], the MMP-1 result on MMP-1 is reported as “no inh”. Also, the IC50 in assay [1] (Table 1) is 840 nM; in assay [2] (Table 1), 36 nM; in assay [3], greater than 200000 nM; in assay [4] (Table 1, unit inferred), roughly 200000 nM; at recombinant human MMP-2, 7400 nM.
As to `CC(C)(C)NC(=O)[C@H](CCC(=O)O)NC(=O)c1ccc(-c2ccccc2)cc1` [Example 8SSS, N^2-(biphenyl-4-ylcarbonyl)-N^1-(tert-butyl)-L-α-glutamine], the IC50 is 470 nM in assay [1] (Table 1); 64 nM in assay [2] (Table 1); greater than 50000 nM in assay [4] (Table 1, unit inferred); 10300 nM at recombinant human MMP-2.
For the compound `CCCNC(=O)[C@H](CCC(=O)O)NC(=O)c1ccc2c(c1)Cc1ccccc1-2` [Example 8FFFFF, N^2-(9H-fluoren-2-ylcarbonyl)-N^1-propyl-L-α-glutamine], the IC50 is 710 nM in assay [1] (Table 2), 92 nM in assay [2] (Table 2) and greater than 100000 nM in assay [4] (setting [6]).
As to `COc1cccc(CCNC(=O)[C@H](CCC(=O)NO)NC(=O)c2ccc(-c3ccccc3)cc2)c1` [Example 33C, N^2-(1,1′-biphenyl-4-ylcarbonyl)-N^5-hydroxy-N^1-[2-(3-methoxyphenyl)ethyl]-L-α-glutamamide], the IC50 against MMP-1 was 1500 nM; in assay [1] (Table 1) it was 25 nM; in assay [2] (Table 1) it was less than 10 nM; in assay [3], 110 nM; in assay [4] (Table 1, unit inferred), 29 nM.
Consider `CCC(C)NC(=O)[C@H](CCC(=O)O)NC(=O)c1ccc(-c2ccccc2)cc1` (stereo partly drawn) [Example 8BBB, N^2-(1,1′-biphenyl-4-ylcarbonyl)-N^1-(sec-butyl)-L-α-glutamine], for which the IC50 is greater than 200000 nM on MMP-1; 700 nM in assay [1] (Table 1); 32 nM in assay [2] (Table 1); greater than 50000 nM in assay [4] (Table 1, unit inferred). The Ki in assay [2] (Table 1, enzyme not given, column follows Agg1 IC50, read-out: Ki) was found to be 130 nM. Besides, the MMP-14 result in assay [3] (unit not given) was “no inh”. In addition, the bovine in assay [5] (setting [7]) turned out to be 35%; in assay [5] (setting [8]), 0%.
Consider `COc1cc(CNC(=O)C(CCC(=O)O)NC(=O)c2ccc(-c3ccc4c(c3)OCO4)cc2)cc(OC)c1OC` (stereo not shown) [Example 17N, 4-(4-Benzo[1,3]dioxol-5-yl-benzoylamino)-4-(3,4,5-trimethoxy-benzylcarbamoyl)-butyric acid], for which the IC50 worked out at 42 nM in assay [1] (Table 2), 40 nM in assay [2] (Table 2) and 11200 nM in assay [4] (setting [6]).
For `CC(C)(Cc1ccc(F)cc1)NC(=O)[C@H](CCC(=O)O)NC(=O)c1ccc2c(c1)Cc1ccccc1-2` [Example 8ZZZZZ, N^2-(9H-fluoren-2-ylcarbonyl)-N^1-[2-(4-fluorophenyl)-1,1-dimethylethyl]-L-α-glutamine], in that order: 63 nM, less than 30 nM and greater than 100000 nM.
In the case of `COc1cccc(-c2ccc(C(=O)N[C@@H](CCC(=O)O)C(=O)NC(C)(C)Cc3ccccc3)cc2)c1` [Example 17I, N-(1,1-dimethyl-2-phenylethyl)-N^2-[(3′-methoxybiphenyl-4-yl)carbonyl]-L-α-glutamine], the IC50 is 217 nM in assay [1] (Table 2), less than 30 nM in assay [2] (Table 2) and roughly 100000 nM in assay [4] (setting [6]).
Take `O=C(O)CC[C@H](NC(=O)c1ccc(-c2ccccc2)cc1)C(=O)NCc1ccc(I)cc1` [Example 8LL, N^2-(1,1′-biphenyl-4-ylcarbonyl)-N^1-(4-iodobenzyl)-L-α-glutamine]: the 50% inhibitory concentration (IC50) in assay [1] (Table 1) was determined as 990 nM; in assay [2] (Table 1) it was 55 nM; in assay [4] (Table 1, unit inferred), 24000 nM; at recombinant human MMP-2, 50000 nM. Moreover, the values for the bovine in assay [5] (setting [7]) and in assay [5] (setting [8]) were 40% and 0%, respectively.
Regarding `O=C(O)CC[C@H](NC(=O)c1ccc(-c2ccccc2)cc1)C(=O)NCc1cccc(-c2ccccn2)c1` [Example 10Q, N^2-(biphenyl-4-ylcarbonyl)-N^1-(3-pyridin-2-ylbenzyl)-L-α-glutamine], the MMP-1 result at MMP-1 is recorded as “no inh”. In addition, the IC50 is 3000 nM in assay [1] (Table 1); 98 nM in assay [2] (Table 1); greater than 50000 nM in assay [3]; roughly 50000 nM in assay [4] (Table 1, unit inferred).
With `COc1cc(COc2ccc(-c3ccc(C(=O)N[C@@H](CCC(=O)O)C(=O)NCc4cc(OC)c(OC)c(OC)c4)cc3)cc2)cc(OC)c1` [Example 18, N^2-({4′-[(3,5-dimethoxybenzyl)oxy]biphenyl-4-yl}carbonyl)-N-(3,4,5-trimethoxybenzyl)-L-α-glutamine], the IC50 in assay [1] (Table 2) was 50 nM; in assay [2] (Table 2), 49 nM; in assay [4] (setting [6]) it was roughly 1600 nM.
